Read-outs that look alike come from different tables or passages of the source.
Key:
[1] = cited from earlier work
Description: Our results are consistent with three published pediatric PopPK studies that also employed a two-compartment model ([25][–][27]). In contrast, one other pediatric study employed a one-compartment model, probably due to its sparse PK data (48 subjects and 139 observations) ([28]). […] The b ... || Previous studies involving pediatric populations typically included body size on PK parameters. Among them, three studies ([25], [26], [28]) included BSA as a significant covariate on CL and V1 while one study ([27]) emphasized the effect of body weight. In our study, allometric BSA-based allometric scaling yielded lower OFV and AIC compared with weight, LBW, and FFM. The estimated BSA exponent for CL varied considerably across studies, likely reflecting differences in study populations.

[2] = Population pharmacokinetic analysis of total plasma caspofungin in PICU patients (final two-compartment model, NONMEM, n = 29, 138 samples); assay type: in vivo, human (critically ill Chinese children); details: for AUCss,24h, range / AUC(0-t): Bayesian posterior estimates; for AUC(0-t): plasma, iv, read-out: AUCss,24h, median
Procedure: (§1) A prospective clinical study was conducted among pediatrics in PICU from Children’s Hospital of Fudan University from 1 November 2022 to 30 December 2024. Children aged 3 months to 18 years who were admitted to PICU and received caspofungin therapy were eligible for inclusion. The study population encompassed critically ill children, including but not limited to those with liver insufficiency, hypoproteinemia, ECMO treatment, continuous renal replacement therapy (CRRT), or sepsis. Eligible subjects were administered a once-daily, 1-h intravenous infusion of caspofungin, following a body surface area (BSA)-based dosage regimen: a loading dose (LD) of 70 mg/m² (not to exceed 70 mg) on the first day, followed by 50 mg/m² (not exceed 70 mg) for maintenance dose (MD). BSA was calculated using the Mosteller formula: […] ([14]). All participants were provided written consent prior to participating in the study (US Clinical Trials, NCT04961593). Demographic and baseline clinical laboratory data were collected from the medical records, including age, sex, body weight, height, BSA, liver function, renal function, and various biomarkers reflecting immune system status. Information on bacterial cultures was also collected from microbiological laboratory reports. The biochemical measurements were derived from the most recent clinical laboratory results available within 7 days prior to the first caspofungin administration, reflecting the patient’s baseline physiological status.
Total caspofungin plasma concentrations were quantified using a liquid chromatography tandem mass spectrometry (LC-MS/MS) method. Blood samples were collected with EDTA-K2 as anticoagulant, and plasma was obtained by centrifugation at 4,000 g for 5 min and stored at −80°C until analysis, which would be performed within 30 days. The analysis was performed using the LC-40AD chromatographic system (Shimazu, Tokyo, Japan) combined with a 6500+ Triple Quad mass spectrometry system (AB Sciex, Framingham, USA). The separation is achieved on a Kinetex C18 column (2.1 × 50 mm, 2.6 μm) using a mobile phase composed of buffer (0.1% [vol/vol] formic acid and 5 mM ammonium acetate) and methanol (0.1% [vol/vol] formic acid). A volume of 40 μL of each plasma sample was precipitated with 260 μL of methanol with 0.4% formic acid. After centrifugation, 150 μL of the supernatants was mixed with 150 μL of water, and a volume of 1 μL of mixture was injected into the chromatographic system. The calibration range of caspofungin was linear over the range of 0.05 to 50 μg/mL with a lower limit of quantification (LLOQ) of 0.05 μg/mL. The samples with concentration that exceeded the upper limit were diluted into half by using blank plasma sample. All the analysis run met the requirement of M10 guideline for bioanalytical method validation and study sample analysis ([15]).
(§2) This study incorporated data from two study stages: the intensive sampling stage, followed by a sparse sampling stage (Fig. S1). In the first stage, the sampling time points were scheduled at pre-dose, 1, 2, 4, 8 h (if feasible) and 16 h (if feasible) following the most recent dose (the sixth administration after the first dose). The optimal sparse sampling design was then conducted to minimize the number of sampling points based on the defined constraint conditions. The designed sparse sampling time windows were pre-dose (0–1 h), 0.5–1.5, 6–7, and 23–24 h after the prior dose (the sixth administration after the first dose). The detailed optimal design process was described in the Supplemental material.
The PopPK model was developed using the non-linear mixed-effects modeling software NONMEM (version 7.5, ICON Development Solutions, Ellicott City, Maryland) with the first-order conditional estimation with interaction (FOCE-I) algorithm. […]

[3] = tested on: positive fungal culture (C. parapsilosis, C. albicans, C. tropicalis, C. guilliermondii); assay: Fungal culture conversion during caspofungin therapy; assay type: in vivo, human (critically ill children); details: thirteen patients with positive fungal culture during caspofungin infusion
Procedure: as §1, with “The biochemical measurements were derived from the most recent clinical laboratory results available within 7 days prior to the first caspofungin administration, reflecting the patient’s baseline physiological status.” left out

[4] = First-stage population pharmacokinetic model from intensive sampling (n = 14), used for optimal sampling design; assay type: in vivo, human (critically ill children)
Procedure: as §2
During the optimized sampling process, explicit constraint conditions were defined. In the second phase of our study, approximately 40 participants were to be recruited to receive a daily 1-hour intravenous infusion of caspofungin, with a BSA-based dosing strategy. Sampling was planned to take place within one single day after reaching steady-state levels. Given that the study subjects were pediatric patients, we aimed to minimize the number of sampling points.
Design software tools, including $DESIGN option in NONMEM and PopED (version 0.6.0, R package), were utilized to explore design elements such as sampling size, and sampling times. These tools evaluated uncertainties in PK parameter estimates based on the current sampling scheme and population pharmacokinetic (PPK) model. The designs were evaluated to ensure the precise estimation of typical PK parameters, defined as a relative standard error (RSE) of less than 50%.
Figure S1. Study flow diagram. In the first stage of the study, a population pharmacokinetic model was developed based on intensive sampling data collected from the prospective clinical study conducted among pediatrics with a small sample size in ICU. Secondly, design software tools, including $DESIGN in NONMEM and PopED, were utilized to optimize sampling design. During the third phase in our study, the optimized sampling scheme would be applied to a larger-scale study.

[5] = published pediatric PK estimates

For CC[C@H](C)C[C@H](C)CCCCCCCCC(=O)N[C@H]1C[C@@H](O)[C@@H](NCCN)NC(=O)[C@@H]2[C@@H](O)CCN2C(=O)[C@H]([C@H](O)CCN)NC(=O)[C@H]([C@H](O)[C@@H](O)c2ccc(O)cc2)NC(=O)[C@@H]2C[C@@H](O)CN2C(=O)[C@H]([C@@H](C)O)NC1=O [caspofungin], the “Elimination rate constant (ke), median” value ([1]; other four pediatric studies) is listed as 0.0875 h⁻¹, the “Elimination rate constant (ke), range” value ([1]; other four pediatric studies) is listed as 0.074 to 0.101 h⁻¹ and the “BSA-normalized clearance, median” value [1, 5] is listed as 0.208 L/h/m^2. For the same compound, the “BSA-normalized clearance, range” value [1, 5] was 0.126–0.21 L/h/m^2, the “BSA-normalized volume of distribution (V1), median” value [1, 5] was 2.19 L/m^2 and the “BSA-normalized volume of distribution (V1), range” value [1, 5] was 1.72–2.62 L/m^2. The “AUCss,24h, range” value ([2]; ECMO group, n = 4) was 17.20 to 176.04 µg·h/mL, the “AUCss,24h, range” value ([2]; non-ECMO group, n = 25) was 53.18 to 380.95 µg·h/mL and the “Increase in V1 associated with ECMO” value ([2]; final PopPK model) was 18.2 fold. For the same compound, the “Q (inter-compartment exchange rate), estimate” value ([2]; final PopPK model) was 1.01 L/h, the “V2 (peripheral volume), estimate” value ([2]; final PopPK model) was 1.63 L and the “V2, bootstrap (n = 1,000) median [95% CI]” value ([2]; final PopPK model, bootstrap n = 1,000) was 1.89 [1.20–4.29] L. For the same compound, the “V1 (volume of the central compartment), estimate” value ([2]; final PopPK model, scaled to 0.79 m^2 (BSA exponent 1), without ECMO) was 2.22 L, the AUC(0-t) ([2]; human, ECMO group, n = 4) was 117 µg·h/mL and the AUC(0-t) ([2]; human, non-ECMO group, n = 25) was 194 µg·h/mL. For the same compound, the clearance ([2]; human, final PopPK model, typical value scaled to a 0.79 m^2 individual (BSA exponent 0.66), 1-h iv infusion once daily, total plasma, LC-MS/MS, n = 29, read-out: CL, estimate (converted)) was 3.27 mL/min, the “BSA-normalized CL” value ([2]; this study, final PopPK model) was 0.248 L/h/m^2 and the “BSA-normalized V1” value ([2]; this study, final PopPK model) was 2.81 L/m^2. The “Elimination rate constant (ke)” value ([2]; this study, final PopPK model) was 0.088 h⁻¹, the “Culture conversion in patients with positive fungal culture” value [3] was “all of them eventually achieved successful culture conversion to negative” and the “The effect of AST on Q, final estimate” value ([4]; exponent on AST/52.5) was 0.898. For the same compound, the clearance ([4]; human, plasma, iv, n = 14, CL = 0.477 x (weight/70)^0.75, read-out: CL, final estimate (converted)) was 7.95 mL/min, the “Q, final estimate” value ([4]; n = 14, Q = 0.512 x (weight/70)^0.75 x (AST/52.5)^0.898) was 0.512 L/h and the “V1, final estimate” value ([4]; n = 14, V1 = 11.8 x (weight/70)^1) was 11.8 L. The “V2, final estimate” value ([4]; n = 14, V2 = 19.2 x (weight/70)^1) was 19.2 L.
